SMILES strings stand for the structures.

The series in a line: Study on solid stability of crystal form P (high temperature, high humidity, light, accelerated conditions; XRPD and HPLC). The series is classed as physicochemical. The procedure:
In order to evaluate the solid stability of the crystal form P, the crystal form P was investigated for influence factors (high temperature, high humidity and light), stability under accelerated conditions and stability under intermediate conditions. The crystal form P was placed at high temperature (60° C., closed), high humidity (room temperature, 92.5% RH, sealing film wrapping and pricking 5-10 small holes) for 5 days and 10 days, then placed under visible light and ultraviolet light (a light-shielding control group was wrapped by tinfoil paper) according to ICH conditions (visible light illumination reached 1.2E+06 Lux hrs, ultraviolet light illumination reached 200 W·hrs/m) in a closed manner, and meanwhile, placed with stability under accelerated conditions ([…]/75% RH, sealing film wrapping and pricking 5-10 small holes) for 10 days and 1-2 months.

Where [1] appears, read: 92.5% RH, room temperature, Day 5.
The mark [2] stands for this setting: 92.5% RH, room temperature, Day 10.
Setting [3] is: Light-shielding control group, taken simultaneously with the visible light + ultraviolet groups.
The mark [4] stands for this setting: Light-shielding control group, taken simultaneously with the visible light group.
[5] abbreviates: Visible + ultraviolet (ICH), illumination reaches 200 W · hrs/m^2.
Setting [6] is: Visible light (ICH), illumination reaches 1.2E+06 Lux · hrs.

As to `CC1(NC(=O)C(=O)c2c(Cl)c(C(=O)Nc3cc(F)c(F)c(F)c3)c3n2CCC3)CCC(CC(=O)O)CC1` (centres unmarked) [crystal form P], the Crystal form change entry reads like this: (60° C., closed, Day 5) “Unchanged”; (60° C., closed, Day 10) “Unchanged”; (60° C./75% RH, 1 month) “Unchanged”; (60° C./75% RH, Day 10) “Unchanged”; (60° C./75% RH, Month 2) “Unchanged”; under setting [1], “Unchanged”. In addition, the Crystal form change entry is recorded as “Unchanged” under setting [2]; “Unchanged” under setting [3]; “Unchanged” under setting [4]; “Unchanged” under setting [5]; “Unchanged” under setting [6]; “unchanged” (under all stability conditions). In addition, the Relative purity is, setting by setting: (60° C., closed, Day 5) 100.0%; (60° C., closed, Day 10) 100.0%; (60° C./75% RH, 1 month) 100.0%; (60° C./75% RH, Day 10) 100.0%; (60° C./75% RH, Month 2) 100.0%; under setting [1], 100.0%. Further, the Relative purity runs as follows: under setting [2], 100.0%; under setting [3], 100.0%; under setting [4], 99.9%; under setting [5], 100.0%; under setting [6], 100.0%.

Values taken from patent publication US20230026869A1, “CRYSTAL FORM OF NUCLEOPROTEIN INHIBITOR AND USE THEREOF” (CHIA TAI TIANQING PHARMACEUTICAL GROUP CO., LTD., priority 2019, published 2023).
